We go through 12 compounds from ChEMBL document CHEMBL1127030, “3-Tetrahydrofuran and pyran urethanes as high-affinity P2-ligands for HIV-1 protease inhibitors” (J Med Chem, 1993).

For test [1], the target named is Human immunodeficiency virus type 1 protease (Human immunodeficiency virus 1, UniProt Q72874). As to the kind of experiment: Inhibition of HIV-1 protease.
Test [2] deals with Human immunodeficiency virus 1. As to the kind of experiment: Inhibitory concentration was evaluated to inhibit 95% of HIV-1 spread in MT4 cells.

What is called IC50 is the concentration at which inhibition is half-maximal. A word on the IC95: it is the concentration needed for an effect of 95%. The low end stands for greater potency, the high end for weaker potency.

Regarding `O=C(N[C@@H](Cc1ccccc1)[C@@H](O)C[C@@H](Cc1ccccc1)C(=O)N[C@H]1c2ccccc2C[C@H]1O)OC1CCOCC1`, the IC50 in test [1] was found to be 1.22 nM.

As for `O=C(N[C@@H](Cc1ccccc1)[C@@H](O)C[C@@H](Cc1ccccc1)C(=O)N[C@H]1c2ccccc2C[C@H]1O)O[C@@H]1CCCOC1`, the IC50 in test [1] was less than 0.03 nM. The IC95 in test [2] was found to be 25 nM.

In test [1], `CC(C)(C)NC(=O)[C@@H]1C[C@@H]2CCCC[C@@H]2CN1C[C@@H](O)[C@H](Cc1ccccc1)NC(=O)O[C@H]1C=CCOC1` had an IC50 of 314 nM. In other words, the sub-micromolar range.

Turning to `O=C(N[C@@H](Cc1ccccc1)[C@@H](O)C[C@@H](Cc1ccccc1)C(=O)N[C@H]1c2ccccc2C[C@H]1O)O[C@H]1CCOC1`, the 50% inhibitory concentration (IC50) in test [1] was less than 0.03 nM. In addition, it took 3 nM to reach the 95% level in test [2] (IC95).

In test [1], `O=C(N[C@@H](Cc1ccccc1)[C@@H](O)C[C@@H](Cc1ccccc1)C(=O)N[C@H]1c2ccccc2C[C@H]1O)OC1CCCC1` showed an IC50 of 0.33 nM. The same compound registered an IC95 in test [2] of 400 nM.

As for `CC(C)(C)NC(=O)[C@@H]1C[C@@H]2CCCC[C@@H]2CN1C[C@@H](O)[C@H](Cc1ccccc1)NC(=O)O[C@H]1CCCOC1`, the IC50 in test [1] worked out at 392 nM.

As for `CC(C)(C)NC(=O)[C@@H]1C[C@@H]2CCCC[C@@H]2CN1C[C@@H](O)[C@H](Cc1ccccc1)NC(=O)O[C@@H]1C=CCOC1`, the concentration for half-maximal inhibition (IC50) in test [1] was determined as 48.9 nM.

`CC(C)(C)OC(=O)N[C@@H](Cc1ccccc1)[C@@H](O)C[C@@H](Cc1ccccc1)C(=O)N[C@H]1c2ccccc2C[C@H]1O` registered an IC95 in test [2] of 400 nM.

Compound `CC(C)(C)NC(=O)[C@@H]1C[C@@H]2CCCC[C@@H]2CN1C[C@@H](O)[C@H](Cc1ccccc1)NC(=O)O[C@@H]1CCCOC1` registered an IC50 in test [1] of 308 nM.

For the compound `O=C(N[C@@H](Cc1ccccc1)[C@@H](O)C[C@@H](Cc1ccccc1)C(=O)N[C@H]1c2ccccc2C[C@H]1O)O[C@H]1CCCOC1`, the IC50 in test [1] is less than 0.03 nM. This compound also displayed an IC95 in test [2] of 50 nM.

With `CC(C)(C)NC(=O)[C@@H]1C[C@@H]2CCCC[C@@H]2CN1C[C@@H](O)[C@H](Cc1ccccc1)NC(=O)OC(C)(C)C`, in test [1], the IC50 is more than 3000 nM.

Turning to `O=C(N[C@@H](Cc1ccccc1)[C@@H](O)C[C@@H](Cc1ccccc1)C(=O)N[C@H]1c2ccccc2C[C@H]1O)O[C@@H]1CCOC1`, the IC50 in test [1] is 0.03 nM. In test [2], it took 100 nM to reach the 95% level (IC95).
